Data from BindingDB's records for doi:10.1021/acs.jmedchem.0c00961 (Rheinische Friedrich-Wilhelms-University Bonn, 2020).

Assays:
[1] = Inhibition of human ABCG2-mediated multidrug resistance in MDCK2 cells assessed as potentiation of SN-38-induced cytotoxicity by measuring half maximal reversal concentration after 72 hrs by MTT assay
[2] = Inhibition of human ABCB1-mediated multidrug resistance in human A2780/ADR cells assessed as potentiation of doxorubicin-induced cytotoxicity by measuring half maximal reversal concentration after 72 hrs by MTT assay
[3] = Inhibition of human ABCC1-mediated multidrug resistance in MDCK2 cells assessed as potentiation of doxorubicin-induced cytotoxicity by measuring half maximal reversal concentration after 72 hrs by MTT assay

Row | Structure (SMILES) | EC50 [1] | EC50 [2] | EC50 [3]
1 | Cc1cc(Nc2ccc(C#N)c(C)c2)nc(-c2ccccc2)n1 | 0.011 µM | – | –
2 | Cc1cc(Nc2ccc([N+](=O)[O-])cc2)nc(-c2ccccc2)n1 | 0.016 µM | – | –
3 | Cc1cc(Nc2ccc(F)c(C#N)c2)nc(-c2ccccc2)n1 | 0.021 µM | – | –
4 | Cc1cc(Nc2ccc(C#N)c(Br)c2)nc(-c2ccccc2)n1 | 0.015 µM | – | –
5 | Cc1cc(Nc2ccc(C#N)c(C(F)(F)F)c2)nc(-c2ccccc2)n1 | 0.015 µM | – | –
6 | Cc1cc(Nc2ccc3ncccc3c2)nc(-c2ccccc2)n1 | 0.016 µM | 8.41 µM | 5.15 µM
